Data as given in patent US20050009005A1, “Methods of using quantitative lipid metabolome data” (Lipomics Technologies, Inc., priority 2001, published 2005).

Columns and labels:
[1] = Body and adipose tissue weight of CL316,243-treated mice (trial 2, FIG. 3); assay type: in vivo
Description: FIG. 3 is a pair of bar graphs showing the body (FIG. 3a) and adipose (FIG. 3b) weights of mice treated with CL316,243 (hatched bars), and corresponding controls(solid bars).
In trial 2, male, inbred NON mice were fed a control with or without the presence of the β-3 adrenergic agonist CL316,243 for four weeks (at 0.001% CL316,243 by weight in the dietary chow).
In both studies, five treated and five control mice were used. Following the treatments and the killing of the mice, tissues and plasma were taken, chilled to −80 ° C. and shipped to the analysis laboratory at Lipomics Technologies in a frozen state.
Tables 7 and 8 show the concentrations of lipid metabolites present in adipose, plasma, heart and liver tissues in mice treated with CL3 16,243 and their controls. In Tables 5 and 7, the data are expressed as nanomoles per gram of tissue or plasma. In tables 6 and 8, the data are expressed as a percentage of total fatty acids within each lipid class.

[2] = patients taking rosiglitazone; Fuchtenbebusch et al. 2000; cited from earlier work

Row | SMILES | mouse body weight ([1]; CL316,243 4 weeks vs controls (FIG. 3a)) | adipose tissue weight ([1]; CL316,243 4 weeks vs controls (FIG. 3b)) | body weight of patients [2]
1 | C[C@H](Cc1ccc2c(c1)OC(C(=O)[O-])(C(=O)[O-])O2)NC[C@H](O)c1cccc(Cl)c1.[Na+].[Na+] [CL316,243] | significant decrease | significant decrease | –
2 | CN(CCOc1ccc(CC2SC(=O)NC2=O)cc1)c1ccccn1 (stereo not drawn) [rosiglitazone] | – | – | gain weight
